Results as given in ChEMBL document CHEMBL4000232, “Structure-based optimization of 1H-imidazole-2-carboxamides as Axl kinase inhibitors utilizing a Mer mutant surrogate” (Bioorg Med Chem Lett, 2017).

Tests used:
[1] = target: T1, Tyrosine-protein kinase receptor UFO (Homo sapiens, UniProt P30530); assay: Inhibition of Axl (unknown origin)
T1 sequence (P30530 whole entry): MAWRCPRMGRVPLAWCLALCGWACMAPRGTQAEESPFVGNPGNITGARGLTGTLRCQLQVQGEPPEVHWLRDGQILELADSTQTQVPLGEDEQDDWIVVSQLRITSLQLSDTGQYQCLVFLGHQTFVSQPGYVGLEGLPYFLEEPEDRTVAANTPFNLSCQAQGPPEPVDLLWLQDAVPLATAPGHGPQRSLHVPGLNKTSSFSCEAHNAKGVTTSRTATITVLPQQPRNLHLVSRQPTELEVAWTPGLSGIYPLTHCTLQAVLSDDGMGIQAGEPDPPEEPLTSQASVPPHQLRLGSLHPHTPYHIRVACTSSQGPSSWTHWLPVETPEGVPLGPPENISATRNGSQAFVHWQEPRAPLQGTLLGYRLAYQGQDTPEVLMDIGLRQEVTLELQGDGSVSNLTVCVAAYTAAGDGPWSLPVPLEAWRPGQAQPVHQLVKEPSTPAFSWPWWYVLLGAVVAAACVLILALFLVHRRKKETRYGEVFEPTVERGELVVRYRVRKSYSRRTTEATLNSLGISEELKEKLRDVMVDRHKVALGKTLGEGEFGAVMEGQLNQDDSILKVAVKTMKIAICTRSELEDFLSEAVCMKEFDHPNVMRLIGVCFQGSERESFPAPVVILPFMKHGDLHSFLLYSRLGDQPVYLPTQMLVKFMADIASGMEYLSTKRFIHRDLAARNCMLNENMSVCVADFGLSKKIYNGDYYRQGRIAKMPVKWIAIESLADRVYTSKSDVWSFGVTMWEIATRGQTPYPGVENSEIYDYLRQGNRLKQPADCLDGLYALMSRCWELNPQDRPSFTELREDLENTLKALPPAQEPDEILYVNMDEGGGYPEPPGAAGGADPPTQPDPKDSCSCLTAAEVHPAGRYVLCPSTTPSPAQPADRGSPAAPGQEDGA

[2] = Extraction ratio in human hepatic microsomes; format: ADME, Microsome; details: liver microsomes, read-out: ERH
[3] = Extraction ratio in rat hepatic microsomes; format: ADME, Microsome; details: liver microsomes, read-out: ERH
Liver = assay: Intrinsic clearance in rat liver microsomes; format: ADME, microsome
[4] = Permeability of the compound by PAMPA; format: physicochemical; details: read-out: permeability
HepG2 = assay: Cytotoxicity against human HepG2 cells; format: functional
[5] = Protein binding in human plasma; format: ADME, cell-free; details: read-out: PPB (converted)
[6] = Inhibition of CYP450 (unknown origin); format: ADME; details: human
[7] = Clearance in rat; format: ADME; details: in vivo
hERG (KCNH2) = hERG (KCNH2) (Homo sapiens, UniProt Q12809); assay: Inhibition of human ERG at 10 uM relative to control
Chain of hERG (KCNH2) (Q12809 whole entry): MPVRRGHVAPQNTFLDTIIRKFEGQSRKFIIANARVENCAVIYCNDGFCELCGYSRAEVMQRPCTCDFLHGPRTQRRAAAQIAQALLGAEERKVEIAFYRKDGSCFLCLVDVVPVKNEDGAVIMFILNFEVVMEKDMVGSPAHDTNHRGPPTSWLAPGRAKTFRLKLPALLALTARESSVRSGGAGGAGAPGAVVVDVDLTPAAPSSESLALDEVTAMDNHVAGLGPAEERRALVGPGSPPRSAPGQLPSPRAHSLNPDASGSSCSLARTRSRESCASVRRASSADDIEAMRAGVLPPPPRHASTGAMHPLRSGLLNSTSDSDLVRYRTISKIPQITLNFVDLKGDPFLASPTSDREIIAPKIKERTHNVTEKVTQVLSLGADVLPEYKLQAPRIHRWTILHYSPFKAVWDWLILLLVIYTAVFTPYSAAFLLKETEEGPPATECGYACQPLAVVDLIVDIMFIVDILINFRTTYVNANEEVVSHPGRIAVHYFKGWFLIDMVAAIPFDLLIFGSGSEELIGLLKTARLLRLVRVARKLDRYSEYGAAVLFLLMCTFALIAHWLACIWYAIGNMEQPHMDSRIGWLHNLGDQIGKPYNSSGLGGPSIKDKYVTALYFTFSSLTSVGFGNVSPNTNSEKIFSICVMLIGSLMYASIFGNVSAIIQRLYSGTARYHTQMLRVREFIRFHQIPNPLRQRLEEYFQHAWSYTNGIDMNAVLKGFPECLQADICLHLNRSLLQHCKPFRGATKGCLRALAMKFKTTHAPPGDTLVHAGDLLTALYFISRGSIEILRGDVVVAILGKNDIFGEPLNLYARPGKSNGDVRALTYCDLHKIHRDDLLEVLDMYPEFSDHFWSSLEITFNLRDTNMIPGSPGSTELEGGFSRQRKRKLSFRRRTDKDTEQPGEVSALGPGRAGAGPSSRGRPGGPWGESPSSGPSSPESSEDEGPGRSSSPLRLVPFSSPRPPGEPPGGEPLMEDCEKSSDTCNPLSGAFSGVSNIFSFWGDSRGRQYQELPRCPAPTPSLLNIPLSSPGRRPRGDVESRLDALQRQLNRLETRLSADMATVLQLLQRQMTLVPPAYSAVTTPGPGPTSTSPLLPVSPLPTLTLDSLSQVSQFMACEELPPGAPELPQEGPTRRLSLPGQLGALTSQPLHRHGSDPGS

[8] = Protein binding in rat plasma; format: ADME, cell-free; details: read-out: PPB (converted)
[9] = Oral bioavailability in rat; format: ADME, organism-based; details: in vivo

IC50 [1] [µM]	hepatic extraction ratio [2]	hepatic extraction ratio [3]	SMILES	further results
> 1	0.75	0.69	COC(=O)N1CCC[C@H](c2csc(-c3ccccc3NC(=O)c3ncc[nH]3)n2)C1	–
> 0.63	0.95	0.86	CCS(=O)(=O)N1CCC[C@H](c2csc(-c3ccccc3NC(=O)c3ncc[nH]3)n2)C1	–
> 1	0.86	0.87	CS(=O)(=O)N1CCC[C@H](c2csc(-c3ccccc3NC(=O)c3nc4ccccc4[nH]3)n2)C1	–
–	–	–	CS(=O)(=O)N1CCO[C@H](c2csc(-c3cc(N4CCOCC4)ccc3NC(=O)c3ncc[nH]3)n2)C1	CLH (Liver): 35 mL/min/kg; Papp [4]: 18.4 ×10⁻⁶ cm/s; Activity (HepG2): 14 µM; fraction unbound [5]: 0.21; inhibition (INH) [6]: > 16%; clearance [7]: 54 mL/min/kg; inhibition at 10 µM (hERG (KCNH2)): 19%; fraction unbound [8]: 0.1; bioavailability [9]: 38%
–	–	–	CS(=O)(=O)N1CCC[C@H](c2csc(-c3ccccc3NC(=O)c3ncc[nH]3)n2)C1	Papp [4]: 15.7 ×10⁻⁶ cm/s; clearance [7]: 20 mL/min/kg; inhibition at 10 µM (hERG (KCNH2)): 94%; bioavailability [9]: 13%
> 1	0.9	0.71	CS(=O)(=O)N1CCC[C@H](c2csc(-c3ccccc3NC(=O)c3cnc[nH]3)n2)C1	–
> 1	0.78	0.67	CC(=O)N1CCC[C@H](c2csc(-c3ccccc3NC(=O)c3ncc[nH]3)n2)C1	–
